{"source": "patent US10308644B2", "about": "“Heterocyclic compounds as immunomodulators” (Incyte Corporation, priority 2016, dated 2019)"}
{"target": "PD-1/PD-L1 (Homo sapiens (Human), UniProt Q9NZQ7)", "sequence (Q9NZQ7 19-238)": "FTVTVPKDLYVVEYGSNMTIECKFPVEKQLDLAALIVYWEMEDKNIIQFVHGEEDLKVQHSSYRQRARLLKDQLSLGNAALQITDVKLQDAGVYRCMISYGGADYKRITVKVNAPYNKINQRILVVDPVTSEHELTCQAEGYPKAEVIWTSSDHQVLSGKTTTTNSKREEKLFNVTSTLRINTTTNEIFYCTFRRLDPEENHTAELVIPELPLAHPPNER", "experiment": "PD-1/PD-L1 Homogeneous Time-Resolved Fluorescence (HTRF) Binding Assay", "settings": "recombinant human PD-1 (3 nM) and PD-L1 (10 nM), 25° C., PBS pH 7.4", "procedure": "Example A. PD-1/PD-L1 Homogeneous Time-Resolved Fluorescence (HTRF) Binding Assay\nThe assays were conducted in a standard black 384-well polystyrene plate with a final volume of 20 μL. Inhibitors were first serially diluted in DMSO and then added to the plate wells before the addition of other reaction components. The final concentration of DMSO in the assay was 1%. The assays were carried out at 25° C. in the PBS buffer (pH 7.4) with 0.05% Tween-20 and 0.1% BSA. Recombinant human PD-L1 protein (19-238) with a His-tag at the C-terminus was purchased from AcroBiosystems (PD1-H5229). Recombinant human PD-1 protein (25-167) with Fc tag at the C-terminus was also purchased from AcroBiosystems (PD1-H5257). PD-L1 and PD-1 proteins were diluted in the assay buffer and 10 μL was added to the plate well. Plates were centrifuged and proteins were preincubated with inhibitors for 40 minutes. The incubation was followed by the addition of 10 μL of HTRF detection buffer supplemented with Europium cryptate-labeled anti-human IgG (PerkinElmer-AD0212) specific for Fc and anti-His antibody conjugated to SureLight®-Allophycocyanin (APC, PerkinElmer-AD0059H). After centrifugation, the plate was incubated at 25° C. for 60 min. before reading on a PHERAstar FS plate reader (665 nm/620 nm ratio). Final concentrations in the assay were—3 nM PD1, 10 nM PD-L1, 1 nM europium anti-human IgG and 20 nM anti-His-Allophycocyanin. IC50 determination was performed by fitting the curve of percent control activity versus the log of the inhibitor concentration using the GraphPad Prism 5.0 software.", "units": {"IC50": "nM"}}
{"smiles": "Cc1c(-c2nc3cc(CN4CC[C@@H](C(=O)O)C4)cc(C#N)c3o2)cccc1-c1cccc(-n2cc3c(n2)CN(C)CC3)c1Cl", "note": "[Example 57, (R)-1-((2-(2′-chloro-2-methyl-3′-(6-methyl-4,5,6,7-tetrahydro-2H-pyrazolo[3,4-c]pyridin-2-yl)biphenyl-3-yl)-7-cyanobenzo[d]oxazol-5-yl)methyl)pyrrolidine-3-carboxylic acid]", "IC50": "≤ 10"}
{"smiles": "Cc1c(-c2nc3c(o2)CN(C(=O)CN2CC[C@@H](O)C2)C3)cccc1-c1cccc(-c2nc3cc(CN4CC[C@@](C)(C(=O)O)C4)cc(C#N)c3o2)c1C", "note": "[Example 247, (R)-1-((7-cyano-2-(3′-(5-(2-((R)-3-hydroxypyrrolidin-1-yl)acetyl)-5,6-dihydro-4H-pyrrolo[3,4-d]oxazol-2-yl)-2,2′-dimethyl-[1,1′-biphenyl]-3-yl)-benzo[d]oxazol-5-yl)methyl)-3-methylpyrrolidine-3-carboxylic acid]", "IC50": "≤ 10"}
{"smiles": "CCN(C)CC(=O)N1Cc2nc(-c3cccc(-c4cccc(-c5nc6cc(CN7CC[C@@](C)(C(=O)O)C7)cc(C#N)c6o5)c4C)c3C)oc2C1", "note": "[Example 243, (R)-1-((7-cyano-2-(3′-(5-(N-ethyl-N-methylglycyl)-5,6-dihydro-4H-pyrrolo[3,4-d]oxazol-2-yl)-2,2′-dimethyl-[1,1′-biphenyl]-3-yl)benzo[d]oxazol-5-yl)methyl)-3-methylpyrrolidine-3-carboxylic acid]", "IC50": "≤ 10"}
{"smiles": "Cc1c(-c2nc3cc(CN4CC[C@@](C)(C(=O)O)C4)cc(C#N)c3o2)cccc1-c1cccc(-c2nc3c(s2)CN(C(=O)CN(C)[C@H](C)CO)C3)c1C", "note": "[Example 225, (R)-1-((7-cyano-2-(3′-(5-(2-(((R)-1-hydroxypropan-2-yl)(methyl)amino)acetyl)-5,6-dihydro-4H-pyrrolo[3,4-d]thiazol-2-yl)-2,2′-dimethylbiphenyl-3-yl)benzo[d]oxazol-5-yl)methyl)-3-methylpyrrolidine-3-carboxylic acid]", "IC50": "≤ 10"}
{"smiles": "Cc1c(-c2nc3cc(CN4CC5(CC(C(=O)O)C5)C4)cc(C#N)c3o2)cccc1-c1cccc(-c2nc3c(s2)CN(C(=O)CN(C)[C@@H](C)CO)C3)c1C", "note": "[Example 232, 2-((7-cyano-2-(3′-(5-(2-(((S)-1-hydroxypropan-2-yl)(methyl)amino)acetyl)-5,6-dihydro-4H-pyrrolo[3,4-d]thiazol-2-yl)-2,2′-dimethylbiphenyl-3-yl)benzo[d]oxazol-5-yl)methyl)-2-azaspiro[3.3]heptane-6-carboxylic acid]", "IC50": "≤ 10"}
{"smiles": "Cc1c(-c2nc3cc(CN4CC[C@@](C)(C(=O)O)C4)cc(C#N)c3o2)cccc1-c1cccc(Nc2nccc3cc(CN4CC[C@@H](O)C4)cnc23)c1Cl", "note": "[Example 187, (R)-1-((2-(2′-chloro-3′-(3-(((R)-3-hydroxypyrrolidin-1-yl)methyl)-1,7-naphthyridin-8-ylamino)-2-methylbiphenyl-3-yl)-7-cyanobenzo[d]oxazol-5-yl)methyl)-3-methylpyrrolidine-3-carboxylic acid]", "IC50": "≤ 10"}
{"smiles": "Cc1c(-c2nc3cc(CN4CC[C@@](C)(C(=O)O)C4)cc(C#N)c3o2)cccc1-c1cccc(NC(=O)c2nc3c(n2C)CC(C)NC3)c1Cl", "note": "(stereo partly drawn) [Example 163, (3R)-1-((2-(2′-chloro-3′-(1,6-dimethyl-4,5,6,7-tetrahydro-1H-imidazo[4,5-c]pyridine-2-carboxamido)-2-methylbiphenyl-3-yl)-7-cyanobenzo[d]oxazol-5-yl)methyl)-3-methylpyrrolidine-3-carboxylic acid]", "IC50": "≤ 10"}
{"smiles": "Cc1c(-c2nc3cc(CN4CCC(C(=O)O)CC4)cc(C#N)c3o2)cccc1-c1cccc(NC(=O)c2nc3c(n2C)CCN(C)C3)c1Cl", "note": "[Example 89, 1-((2-(2′-chloro-3′-(1,5-dimethyl-4,5,6,7-tetrahydro-1H-imidazo[4,5-c]pyridine-2-carboxamido)-2-methylbiphenyl-3-yl)-7-cyanobenzo[d]oxazol-5-yl)methyl)piperidine-4-carboxylic acid]", "IC50": "≤ 10"}
{"smiles": "Cc1c(-c2nc3cc(CN4CC[C@@](C)(C(=O)O)C4)cc(C#N)c3o2)cccc1-c1cccc(-c2nc3c(s2)CN(C(=O)CN[C@H]2C[C@H](O)C2)C3)c1C", "note": "[Example 229, (R)-1-((7-cyano-2-(3′-(5-(2-(trans-3-hydroxycyclobutylamino)acetyl)-5,6-dihydro-4H-pyrrolo[3,4-d]thiazol-2-yl)-2,2′-dimethylbiphenyl-3-yl)benzo[d]oxazol-5-yl)methyl)-3-methylpyrrolidine-3-carboxylic acid]", "IC50": "≤ 10"}
{"smiles": "Cc1c(-c2nc3cc(CN4CCC(C(=O)O)CC4)cc(C#N)c3o2)cccc1-c1cccc(Nc2nccc3cc(CN4CC[C@@H](O)C4)cnc23)c1Cl", "note": "[Example 188, (R)-1-((2-(2′-chloro-3′-(3-((3-hydroxypyrrolidin-1-yl)methyl)-1,7-naphthyridin-8-ylamino)-2-methylbiphenyl-3-yl)-7-cyanobenzo[d]oxazol-5-yl)methyl) piperidine-4-carboxylic acid]", "IC50": "≤ 10"}
{"smiles": "Cc1c(-c2nc3cc(CN4CC[C@H](C(=O)O)C4)cc(C#N)c3o2)cccc1-c1cccc(Nc2nccc3cc(CN4CC[C@@H](O)C4)cnc23)c1Cl", "note": "[Example 83, (S)-1-((2-(2′-chloro-3′-(3-(((R)-3-hydroxypyrrolidin-1-yl)methyl)-1,7-naphthyridin-8-ylamino)-2-methylbiphenyl-3-yl)-7-cyanobenzo[d]oxazol-5-yl)methyl)pyrrolidine-3-carboxylic acid]", "IC50": "≤ 10"}
{"smiles": "Cc1c(-c2nc3c(o2)CN(C(=O)CN2CC(O)C2)C3)cccc1-c1cccc(-c2nc3cc(CN4CC[C@@H](C(=O)O)C4)cc(C#N)c3o2)c1C", "note": "[Example 127, (R)-1-((7-cyano-2-(3′-(5-(2-(3-hydroxyazetidin-1-yl)acetyl)-5,6-dihydro-4H-pyrrolo[3,4-d]oxazol-2-yl)-2,2′-dimethyl-[1,1′-biphenyl]-3-yl)benzo[d]oxazol-5-yl)methyl)pyrrolidine-3-carboxylic acid]", "IC50": "≤ 10"}
{"smiles": "CCN(C)CC(=O)N1Cc2nc(-c3cccc(-c4cccc(-c5nc6cc(CN7CC[C@@H](C(=O)O)C7)cc(C#N)c6o5)c4C)c3C)oc2C1", "note": "[Example 241, (R)-1-((7-cyano-2-(3′-(5-(N-ethyl-N-methylglycyl)-5,6-dihydro-4H-pyrrolo[3,4-d]oxazol-2-yl)-2,2′-dimethyl-[1,1′-biphenyl]-3-yl)benzo[d]oxazol-5-yl)methyl)pyrrolidine-3-carboxylic acid]", "IC50": "≤ 10"}
{"smiles": "Cc1c(-c2nc3cc(CN4CC[C@H](C(=O)O)C4)cc(C#N)c3o2)cccc1-c1cccc(NC(=O)c2nc3c(n2C)CCN(C)C3)c1Cl", "note": "[Example 50, (S)-1-((2-(2′-chloro-3′-(1,5-dimethyl-4,5,6,7-tetrahydro-1H-imidazo[4,5-c]pyridine-2-carboxamido)-2-methylbiphenyl-3-yl)-7-cyanobenzo[d]oxazol-5-yl)methyl)pyrrolidine-3-carboxylic acid]", "IC50": "≤ 10"}
{"smiles": "Cc1c(Nc2ncnc3cc(CN4CC[C@@H](O)C4)cnc23)cccc1-c1cccc(-c2nc3cc(CN4CCC[C@H](C(=O)O)C4)cc(C#N)c3o2)c1C", "note": "[Example 206, (S)-1-((7-cyano-2-(3′-(7-(((R)-3-hydroxypyrrolidin-1-yl)methyl)pyrido [3,2-d]pyrimidin-4-ylamino)-2,2′-dimethylbiphenyl-3-yl)benzo[d]oxazol-5-yl)methyl)piperidine-3-carboxylic acid]", "IC50": "≤ 10"}
